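Protocol summary: plate cells (96-well), add compound at 5 concentrations, incubate 48 h, interpolate endpoints linearly. At the GI50, growth is halved.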 The source made the active and inactive calls. Cut-off read from the data, not from the text of the source: active = GI50 up to about 1.1 µM and inactive = higher.
What was measured:
Assay in all cases: growth of human tumour cells (NCI), 48 h
[1] = test system: DLD-1
[2] = test system: XF498
[3] = test system: KM-20L2
[4] = test system: HOP-18
[5] = test system: DMS-114
[6] = test system: DMS-273
[7] = test system: SNB-78
[8] = test system: M19-MEL
[9] = test system: RXF 631

| Compound | GI50 [1] | GI50 [2] | GI50 [3] | GI50 [4] | GI50 [5] | GI50 [6] | GI50 [7] | GI50 [8] | GI50 [9] |
| --- | --- | --- | --- | --- | --- | --- | --- | --- | --- |
| C[n+]1c2ccccc2cc2c(CNC(CCCNC(=N)N)C(=O)O)cccc21 (configuration not stated) | 0.351 µM (active) | 2.07 µM (inactive) | 0.641 µM (active) | 2.05 µM (inactive) | 0.232 µM (active) | 1.59 µM (inactive) | 2.31 µM (inactive) | 0.413 µM (active) | 3.37 µM (inactive) |
| O=C(O)Cn1c(=O)[nH]c(=O)c2[nH]cnc21 | > 100 µM (inactive) |  | > 100 µM (inactive) | > 100 µM (inactive) | > 100 µM (inactive) | > 100 µM (inactive) | > 100 µM (inactive) | > 100 µM (inactive) | > 100 µM (inactive) |
| N=C(N)NNC(=O)CCn1[nH]c(=O)c(Cl)c(Cl)c1=O | > 100 µM (inactive) | > 100 µM (inactive) | > 100 µM (inactive) | > 100 µM (inactive) | > 100 µM (inactive) | > 100 µM (inactive) |  | > 100 µM (inactive) | > 100 µM (inactive) |
| Cc1ccc(C)c(NC(=O)CCC(=O)CC(=O)C(C)(C)C)c1 | > 100 µM (inactive) | > 100 µM (inactive) | > 100 µM (inactive) | > 100 µM (inactive) | > 100 µM (inactive) | > 100 µM (inactive) | > 100 µM (inactive) | > 100 µM (inactive) |  |
| O=C1[C@@H]2C(c3ccncc3)=NO[C@@H]2C(=O)N1c1ccc(Cc2ccc(N3C(=O)[C@H]4C(c5ccncc5)=NO[C@H]4C3=O)cc2)cc1 | > 100 µM (inactive) |  | > 100 µM (inactive) | > 100 µM (inactive) | > 100 µM (inactive) | > 100 µM (inactive) | > 100 µM (inactive) | > 100 µM (inactive) | > 100 µM (inactive) |
| COc1ccc2c(c1)N1CCc3cc(OC)c(OC)cc3C1C2 (configuration not stated) | 39.7 µM (inactive) | 26.5 µM (inactive) | 73.3 µM (inactive) | > 100 µM (inactive) | 37.6 µM (inactive) | 43.3 µM (inactive) | > 100 µM (inactive) | 41.2 µM (inactive) |  |
| O=[N+]([O-])c1cccnc1S(=O)(=O)c1ccccc1 | 2.49 µM (inactive) | 13.1 µM (inactive) | 12.8 µM (inactive) | 12.9 µM (inactive) | 3.18 µM (inactive) | 7.87 µM (inactive) | 11.2 µM (inactive) | 13.5 µM (inactive) | 2.86 µM (inactive) |
| Cc1ccc(NC(=O)CSc2nnc(-c3ccc(/N=C\c4ccc(Cl)cc4)cc3)o2)cc1 |  | > 100 µM (inactive) | > 100 µM (inactive) | > 100 µM (inactive) | > 100 µM (inactive) | > 100 µM (inactive) | > 100 µM (inactive) | > 100 µM (inactive) |  |
| CC(C)(C)c1ccc2c(c1)C(O)(c1ccccc1)c1cc(C(C)(C)C)ccc1C2(O)C(F)(F)F (configuration not stated) | 2.03 µM (inactive) | 1.53 µM (inactive) | 1.59 µM (inactive) | 2.2 µM (inactive) | 2.04 µM (inactive) | 1.74 µM (inactive) |  | 1.85 µM (inactive) |  |
| COC(=O)N/N=C(\C)C(CN1CCCCC1)C(C1=C(O)c2ccccc2OC1)c1ccccc1 (configuration not stated) | > 100 µM (inactive) | > 100 µM (inactive) | > 100 µM (inactive) | > 100 µM (inactive) | > 100 µM (inactive) | > 100 µM (inactive) | > 100 µM (inactive) | > 100 µM (inactive) |  |
| OC(CCl)CN1CC[N+]2(CC1)CC[N+]1(CCN(CC(O)CCl)CC1)CC2 (configuration not stated) [PROSPIDIUM CHLORIDE] |  | > 50 µM (inactive) | > 50 µM (inactive) | > 50 µM (inactive) | 41.6 µM (inactive) | > 50 µM (inactive) |  | > 50 µM (inactive) |  |
| COCOC1CCCC[C@@]1(OCCOCCO[C@@]1(c2ccccc2)CCCC[C@H]1OCOC)c1ccccc1 (some centres not stated) | > 100 µM (inactive) | > 100 µM (inactive) | > 100 µM (inactive) | > 100 µM (inactive) | > 100 µM (inactive) | > 100 µM (inactive) | 55.3 µM (inactive) | > 100 µM (inactive) |  |
| O=C(Nc1ccn(CCI)c(=O)n1)c1ccccc1 | > 100 µM (inactive) |  | > 100 µM (inactive) | > 100 µM (inactive) | > 100 µM (inactive) | > 100 µM (inactive) | > 100 µM (inactive) | > 100 µM (inactive) |  |
| CC(O)C(N/C=C1/N=C(c2ccccc2)OC1=O)C(=O)O (configuration not stated) | > 100 µM (inactive) | > 100 µM (inactive) | > 100 µM (inactive) | > 100 µM (inactive) | > 100 µM (inactive) | > 100 µM (inactive) | > 100 µM (inactive) | > 100 µM (inactive) | > 100 µM (inactive) |
| O=C(NCC(=O)N1CCOC1=O)OCc1ccccc1 | > 100 µM (inactive) | > 100 µM (inactive) | > 100 µM (inactive) | > 100 µM (inactive) | > 100 µM (inactive) | > 100 µM (inactive) | > 100 µM (inactive) | > 100 µM (inactive) |  |
| OC1=CN=C(c2ccccc2)Oc2ccccc21 | > 100 µM (inactive) |  | > 100 µM (inactive) |  | > 100 µM (inactive) | > 100 µM (inactive) | 80.4 µM (inactive) | > 100 µM (inactive) | > 100 µM (inactive) |
| CC(=O)OC1CCn2nnc(CO[Si](C)(C)C(C)(C)C)c21 (configuration not stated) | > 100 µM (inactive) | > 100 µM (inactive) | > 100 µM (inactive) | > 100 µM (inactive) | > 100 µM (inactive) | > 100 µM (inactive) |  |  |  |
| Cc1cc(N(CCC#N)S(=O)(=O)c2ccccc2)ccc1/C=C1\N=C(c2ccc(Cl)cc2)OC1=O | > 100 µM (inactive) | > 100 µM (inactive) | > 100 µM (inactive) |  | > 100 µM (inactive) | > 100 µM (inactive) | > 100 µM (inactive) |  |  |
| CCOC(=O)C=C1CCN(C(=O)c2ccccc2)CC1 | > 100 µM (inactive) | > 100 µM (inactive) | > 100 µM (inactive) | > 100 µM (inactive) |  | > 100 µM (inactive) | > 100 µM (inactive) | > 100 µM (inactive) | > 100 µM (inactive) |
| O=c1[nH]c(=O)n(C2CC(O)C(CO)O2)cc1C#Cc1ccc(F)cc1 (configuration not stated) | > 100 µM (inactive) | > 100 µM (inactive) | > 100 µM (inactive) | > 100 µM (inactive) | > 100 µM (inactive) | > 100 µM (inactive) | > 100 µM (inactive) | > 100 µM (inactive) |  |
| CN(O)C(=O)Cc1ccccc1 | > 100 µM (inactive) | > 100 µM (inactive) | > 100 µM (inactive) |  | > 100 µM (inactive) | > 100 µM (inactive) | > 100 µM (inactive) | > 100 µM (inactive) |  |
| O=C(CC1=Nc2nnc(CCCCCCCc3nnc4n3C(=O)C(CC(=O)c3ccccc3)=N4)n2C1=O)c1ccccc1 | > 100 µM (inactive) | > 100 µM (inactive) | > 100 µM (inactive) | > 100 µM (inactive) | > 100 µM (inactive) |  |  | > 100 µM (inactive) |  |
| CC(C)/C=C1\CCC(CN(C)C)C1=O (configuration not stated) | 1.67 µM (inactive) | 1.91 µM (inactive) | 9.75 µM (inactive) | 3.36 µM (inactive) | 3.19 µM (inactive) |  | 4.51 µM (inactive) | 9.27 µM (inactive) |  |
| CCOC(=O)c1nc(C)oc1C(F)(F)F | > 100 µM (inactive) | > 100 µM (inactive) | > 100 µM (inactive) |  | > 100 µM (inactive) |  | > 100 µM (inactive) | > 100 µM (inactive) |  |
| O=C(O)c1oc2cccc3c2c1CCC3 | > 100 µM (inactive) | > 100 µM (inactive) | > 10 µM (inactive) |  | > 100 µM (inactive) | > 100 µM (inactive) | > 100 µM (inactive) | > 100 µM (inactive) | > 100 µM (inactive) |

From ChEMBL document CHEMBL1201862, “PubChem BioAssay data set” (2004)
